Activity calls are given as the source filed them. No rule for the calls is given here.

This passage reports mutagenic call results from PubChem BioAssay AID1259407 (Chemical Carcinogenesis Research Information System (CCRIS), 2018).

In the data set the test system is CCRIS mutagenicity, Ames/micronucleus/aberration tests. The data set can be described thus: CCRIS mutagenicity studies. To be noted: Test System: AMES SALMONELLA TYPHIMURIUM
Setting [1] is: Strain/Indicator: TA98, Metabolic Activation: RAT, LIVER, S-9, KANECHLOR 500, Method: PREINCUBATION
Setting [2] is: Strain/Indicator: TA100, Metabolic Activation: NONE, Method: PREINCUBATION
The mark [3] stands for this setting: Strain/Indicator: TA100, Metabolic Activation: RAT, LIVER, S-9, KANECHLOR 500, Method: PREINCUBATION
The mark [4] stands for this setting: Strain/Indicator: TA98, Metabolic Activation: NONE, Method: PREINCUBATION

In the case of `O=[N+]([O-])c1ccccc1CCl`, the mutagenic call is “inactive; negative” (Strain/Indicator: TA98, Metabolic Activation: HAMSTER, LIVER, S-9, AROCLOR 1254 (10%), Method: PREINCUBATION); “inactive; negative” (Strain/Indicator: TA98, Metabolic Activation: RAT, LIVER, S-9, AROCLOR 1254 (10%), Method: PREINCUBATION); “active; positive” under setting [1]; “active; positive” (Strain/Indicator: TA100, Metabolic Activation: HAMSTER, LIVER, S-9, AROCLOR 1254 (10%), Method: PREINCUBATION); “active; positive” under setting [2]; “active; positive” (Strain/Indicator: TA100, Metabolic Activation: RAT, LIVER, S-9, AROCLOR 1254 (10%), Method: PREINCUBATION). Moreover, the mutagenic call is, setting by setting: under setting [3], “active; positive”; (Strain/Indicator: TA1535, Metabolic Activation: HAMSTER, LIVER, S-9, AROCLOR 1254 (10%), Method: PREINCUBATION) “active; positive”; (Strain/Indicator: TA1535, Metabolic Activation: NONE, Method: PREINCUBATION) “inactive; negative”; (Strain/Indicator: TA1535, Metabolic Activation: RAT, LIVER, S-9, AROCLOR 1254 (10%), Method: PREINCUBATION) “active; positive”; (Strain/Indicator: TA1537, Metabolic Activation: HAMSTER, LIVER, S-9, AROCLOR 1254 (10%), Method: PREINCUBATION) “inactive; negative”; (Strain/Indicator: TA1537, Metabolic Activation: NONE, Method: PREINCUBATION) “inactive; negative”. In addition, the mutagenic call by setting is: (Strain/Indicator: TA1537, Metabolic Activation: RAT, LIVER, S-9, AROCLOR 1254 (10%), Method: PREINCUBATION) “inactive; negative”; (Strain/Indicator: TA1538, Metabolic Activation: NONE, Method: PREINCUBATION) “inactive; negative”.
Take `Cc1ccc(C)c([N+](=O)[O-])c1`: the mutagenic call by setting is: under setting [4], “inactive; negative”; under setting [1], “inactive; negative”; under setting [2], “inactive; negative”; under setting [3], “active; positive”.
`CON(C)C(=O)Nc1ccc(Br)cc1`: the mutagenic call (Strain/Indicator: TA98, Metabolic Activation: NONE, Method: STANDARD PLATE) is “inactive; negative”; the mutagenic call (Strain/Indicator: TA98, Metabolic Activation: RAT, LIVER, S-9, AROCLOR 1254, Method: STANDARD PLATE) is “inactive; negative”; the mutagenic call (Strain/Indicator: TA100, Metabolic Activation: NONE, Method: STANDARD PLATE) is “inactive; negative”; the mutagenic call (Strain/Indicator: TA100, Metabolic Activation: RAT, LIVER, S-9, AROCLOR 1254, Method: STANDARD PLATE) was “inactive; negative”.
With `O=[N+]([O-])c1ccc(CNc2ncnc3nc[nH]c23)cc1`, the mutagenic call is “inactive; negative” (Strain/Indicator: TA98(1,8-DNP), Metabolic Activation: NONE, Method: PREINCUBATION); “inactive; negative” (Strain/Indicator: TA98(1,8-DNP), Metabolic Activation: RAT, LIVER, S-9, PCB, Method: PREINCUBATION); “inactive; negative” (Strain/Indicator: TA98(NR), Metabolic Activation: NONE, Method: PREINCUBATION); “inactive; negative” (Strain/Indicator: TA98(NR), Metabolic Activation: RAT, LIVER, S-9, PCB, Method: PREINCUBATION); “inactive; negative” under setting [4]; “inactive; negative” (Strain/Indicator: TA98, Metabolic Activation: RAT, LIVER, S-9, PCB, Method: PREINCUBATION). The mutagenic call was “inactive; negative” (Strain/Indicator: TA100(1,8-DNP), Metabolic Activation: NONE, Method: PREINCUBATION); “inactive; negative” (Strain/Indicator: TA100(1,8-DNP), Metabolic Activation: RAT, LIVER, S-9, PCB, Method: PREINCUBATION); “inactive; negative” (Strain/Indicator: TA100(NR), Metabolic Activation: NONE, Method: PREINCUBATION); “inactive; negative” (Strain/Indicator: TA100(NR), Metabolic Activation: RAT, LIVER, S-9, PCB, Method: PREINCUBATION); “inactive; negative” under setting [2]; “inactive; negative” (Strain/Indicator: TA100, Metabolic Activation: RAT, LIVER, S-9, PCB, Method: PREINCUBATION). Further, the mutagenic call was “inactive; negative” (Strain/Indicator: YG1020, Metabolic Activation: NONE, Method: PREINCUBATION); “inactive; negative” (Strain/Indicator: YG1020, Metabolic Activation: RAT, LIVER, S-9, PCB, Method: PREINCUBATION); “inactive; negative” (Strain/Indicator: YG1021, Metabolic Activation: NONE, Method: PREINCUBATION); “active; positive” (Strain/Indicator: YG1021, Metabolic Activation: RAT, LIVER, S-9, PCB, Method: PREINCUBATION); “active; positive” (Strain/Indicator: YG1024, Metabolic Activation: NONE, Method: PREINCUBATION); “inactive; negative” (Strain/Indicator: YG1024, Metabolic Activation: RAT, LIVER, S-9, PCB, Method: PREINCUBATION). For the same compound, the mutagenic call reads like this: (Strain/Indicator: YG1025, Metabolic Activation: NONE, Method: PREINCUBATION) “inactive; negative”; (Strain/Indicator: YG1025, Metabolic Activation: RAT, LIVER, S-9, PCB, Method: PREINCUBATION) “inactive; negative”; (Strain/Indicator: YG1026, Metabolic Activation: NONE, Method: PREINCUBATION) “inactive; negative”; (Strain/Indicator: YG1026, Metabolic Activation: RAT, LIVER, S-9, PCB, Method: PREINCUBATION) “inactive; negative”; (Strain/Indicator: YG1029, Metabolic Activation: NONE, Method: PREINCUBATION) “inactive; negative”; (Strain/Indicator: YG1029, Metabolic Activation: RAT, LIVER, S-9, PCB, Method: PREINCUBATION) “inactive; negative”.
For the compound `Nc1cc2ccccc2c2ccccc12`, the mutagenic call is “active; positive” (Strain/Indicator: TA98, Metabolic Activation: RAT, LIVER, S-9, AROCLOR 1254 (2 OR 4%), Method: STANDARD PLATE); “active; positive” (Strain/Indicator: TA100, Metabolic Activation: RAT, LIVER, S-9, AROCLOR 1254 (4%), Method: STANDARD PLATE); “active; positive” (Strain/Indicator: TA1535, Metabolic Activation: RAT, LIVER, S-9, AROCLOR 1254 (4%), Method: STANDARD PLATE); “active; positive” (Strain/Indicator: TA1537, Metabolic Activation: RAT, LIVER, S-9, AROCLOR 1254 (4%), Method: STANDARD PLATE).
